From US20240316028A1, “[…] FORMULATIONS AND THEIR USES” (priority 2023, published 2024) come the findings set out here.

Data set [1] is classed as physicochemical. The method, then: All excipients used in the formulations were compatible with physostigmine before and after eBeam of 25 kGy. NaOH was used to adjust the cream pH and was added before mixing with physostigmine.
For data set [2] the following is noted: thermal and photolytic conditions.

Where a name gives a salt, the structure may show the parent alone.

Take `CNC(=O)Oc1ccc2c(c1)[C@]1(C)CCN(C)[C@@H]1N2C` [Physostigmine Salicylate]: in data set [1] (Table 13), the “Total Impurities Pre eBeam” value stood at 0.11. Moreover, in data set [1] (Table 13, eBeam 25 kGy), the “Total Impurities Post eBeam T0” value was determined as 0.15. As for `CN1[C@@H]2CC[C@H]1C[C@@H](OC(=O)C(CO)c1ccccc1)C2` (stereo partly drawn) [atropine sulfate], the “thermal and photolytic degradation” value in data set [2] is “No significant variation”.
